Residues, ends and D or L forms follow the SMILES beside them.
System: OVA-sensitized C57BL/6J mice
Assay: OVA-sensitized murine model of asthma (lung histology)
Assay type: in vivo, mouse
Settings: KYC 0.3 mg/kg every other day, 5 treatments
Excerpt: Murine Model of Experimentally-Induced Asthma. C57BL/6J mice (12-14 wk old) from Jackson Laboratory (Bar Harbor, Me.) were housed in sterile autoclavable microisolation cages and fed standard laboratory mouse chow and water ad libitum. All protocols were approved by the Institutional Animal Care and Use Committee (IACUC) of the Medical College of Wisconsin.
C57BL/6J mice were divided into three groups; a control group (Control), an ovalbumin (OVA)-sensitized group and an OVA-sensitized group treated with KYC. OVA sensitization was achieved using a modification of a protocol previously described by de Siqueira et al^15 (FIG. 1). […] When mice inhale aerosolized OVA, robust allergic responses are routinely observed.
Briefly, on day one, mice were anesthetized (halothane; Halocarbon Laboratories, River Edge, N.J.) and a heat-denatured OVA fragment (˜80 mg, 5×2×2 mm) was implanted subcutaneously in the dorsal aspect of the neck. The incision was closed with stainless steel clips and the mouse was allowed to recover. Implantation of the heat-denatured OVA fragment initiates sensitization. On day fifteen, the implanted mice were exposed to aerosolized OVA (6% in PBS) for 30 minutes every other day for ten days. Twenty-four hours after the last OVA challenge, the mice were deeply anesthetized (halothane), sacrificed by exsanguination and the lungs removed for analysis. […]

Compound: CC(=O)N[C@@H](CCCCN)C(=O)N[C@@H](Cc1ccc(O)cc1)C(=O)N[C@@H](CS)C(N)=O [KYC, N-acetyl Lysyltyrosylcysteine Amide] (Ac-Lys-Tyr-Cys-NH2)
- Eosinophil infiltration in the lungs (in words) (H&E): markedly reduce eosinophil infiltration to essentially control levels
- Collagen deposition in the lungs (in words) (trichrome): markedly reduces collagen deposition to control levels

— US8937039B2, “Peptide-based peroxidase inhibitors and methods of using same” (The Medical College of Wisconsin, Inc., priority 2009, dated 2015)
